Several values for one entry are separate records, joined by “and”; a condition that tells them apart may be missing. Equal entries are not always repeated.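 Exposure lasted 48 hours, with cells grown in 96-well plates and compounds tested at five concentrations. GI50 marks 50% less growth. TGI: concentration producing complete growth inhibition.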
Tests used:
Assay in all cases: NCI tumour cell line growth inhibition, 48 h
786-0 renal = tested on: 786-0 renal
A549 NSCLC = tested on: A549 NSCLC
CCRF-CEM leukemia = tested on: CCRF-CEM leukemia
EKVX NSCLC = tested on: EKVX NSCLC
IGROV1 ovarian = tested on: IGROV1 ovarian
MALME-3M melanoma = tested on: MALME-3M melanoma
MDA-MB-231 breast = tested on: MDA-MB-231 breast
MDA-N = tested on: MDA-N
OVCAR-3 ovarian = tested on: OVCAR-3 ovarian
SK-OV-3 ovarian = tested on: SK-OV-3 ovarian
HL-60(TB) leukemia = tested on: HL-60(TB) leukemia
NCI-H522 lung = tested on: NCI-H522 lung
RXF 393 renal = tested on: RXF 393 renal

Compound: CCOC(OCC)[C@H](N)[C@@H](O)[C@@H](O)[C@H]1COC(C)(C)O1
- TGI (786-0 renal): > 100 µM
- TGI (A549 NSCLC): > 100 µM
- TGI (CCRF-CEM leukemia): > 100 µM
- TGI (EKVX NSCLC): > 100 µM
- TGI (IGROV1 ovarian): > 100 µM
- TGI (MALME-3M melanoma): > 100 µM
- TGI (MDA-MB-231 breast): > 100 µM
- TGI (MDA-N): > 100 µM
- TGI (OVCAR-3 ovarian): > 100 µM
- TGI (SK-OV-3 ovarian): > 100 µM

Compound: COc1cc(C2SCC(=O)N2NC(=O)c2ccc(NC(C)=O)cc2OC)ccc1O (stereo not given)
- TGI (786-0 renal): > 100 µM
- TGI (A549 NSCLC): > 100 µM
- TGI (CCRF-CEM leukemia): > 100 µM
- TGI (EKVX NSCLC): > 100 µM
- TGI (HL-60(TB) leukemia): > 100 µM
- TGI (IGROV1 ovarian): > 100 µM
- TGI (MALME-3M melanoma): > 100 µM
- TGI (MDA-N): > 100 µM
- TGI (NCI-H522 lung): > 100 µM
- TGI (OVCAR-3 ovarian): > 100 µM
- TGI (RXF 393 renal): > 100 µM
- TGI (SK-OV-3 ovarian): 26.7 µM

Compound: O=C1CN(c2ccccc2)C(=O)CN1CCN1CC(=O)N(c2ccccc2)CC1=O
- TGI (786-0 renal): > 100 µM
- TGI (A549 NSCLC): > 100 µM
- TGI (EKVX NSCLC): > 100 µM
- TGI (HL-60(TB) leukemia): > 100 µM
- TGI (IGROV1 ovarian): > 100 µM
- TGI (MALME-3M melanoma): > 100 µM
- TGI (MDA-N): > 100 µM
- TGI (NCI-H522 lung): > 100 µM
- TGI (OVCAR-3 ovarian): > 100 µM
- TGI (RXF 393 renal): > 100 µM
- TGI (SK-OV-3 ovarian): > 100 µM

Compound: CCCCC(N)CSSCC(N)CCCC (stereo not given)
- TGI (786-0 renal): 32.8 µM
- TGI (A549 NSCLC): > 100 µM
- TGI (CCRF-CEM leukemia): 64.2 µM
- TGI (EKVX NSCLC): 61.8 µM
- TGI (HL-60(TB) leukemia): 40.1 µM
- TGI (IGROV1 ovarian): > 100 µM
- TGI (MALME-3M melanoma): 32.6 µM
- TGI (NCI-H522 lung): 29.7 µM
- TGI (OVCAR-3 ovarian): 47.2 µM
- TGI (SK-OV-3 ovarian): > 100 µM

Compound: CC(C)C1=CC23CCC4C(C)(C(=O)O)CCCC4(C)C2CC1C1C(=O)N(c2cccc(N4C(=O)C5C6CC7C8(C)CCCC(C)(C(=O)O)C8CCC7(C=C6C(C)C)C5C4=O)c2)C(=O)C13 (stereo not given)
- TGI (786-0 renal): > 100 µM
- TGI (A549 NSCLC): > 100 µM
- TGI (CCRF-CEM leukemia): 26.2 µM
- TGI (EKVX NSCLC): 24.4 µM
- TGI (HL-60(TB) leukemia): 30.7 µM
- TGI (MALME-3M melanoma): 32.9 µM
- TGI (MDA-MB-231 breast): 39.2 µM
- TGI (NCI-H522 lung): 29.7 µM
- TGI (OVCAR-3 ovarian): 25.7 µM
- TGI (RXF 393 renal): 27 µM

Compound: O=C(NNC(=O)c1c(Cl)c(Cl)c(Cl)c(Cl)c1-c1nc2ccccc2[nH]1)c1ccc(Cl)cc1
- TGI (786-0 renal): > 100 µM
- TGI (A549 NSCLC): > 100 µM
- TGI (CCRF-CEM leukemia): 67.9 µM
- TGI (EKVX NSCLC): > 100 µM
- TGI (HL-60(TB) leukemia): > 100 µM
- TGI (IGROV1 ovarian): > 100 µM
- TGI (MALME-3M melanoma): > 100 µM
- TGI (MDA-N): 53.4 µM
- TGI (NCI-H522 lung): > 100 µM
- TGI (OVCAR-3 ovarian): > 100 µM
- TGI (RXF 393 renal): > 100 µM
- TGI (SK-OV-3 ovarian): > 100 µM

Compound: C/C(=N\Nc1nc2ccccc2o1)c1cc2ccccc2cn1
- TGI (786-0 renal): 6.61 µM
- TGI (A549 NSCLC): 9.46 µM
- TGI (CCRF-CEM leukemia): > 38.5 µM
- TGI (EKVX NSCLC): 1.25 µM
- TGI (MALME-3M melanoma): 5.51 µM
- TGI (MDA-MB-231 breast): 8.75 µM
- TGI (MDA-N): 35.3 µM
- TGI (OVCAR-3 ovarian): 13.2 µM
- TGI (RXF 393 renal): 4.87 µM
- TGI (SK-OV-3 ovarian): 8.15 µM

Compound: O=c1oc2ccccc2n1CCCn1c(=O)oc2ccccc21
- TGI (786-0 renal): > 100 µM
- TGI (CCRF-CEM leukemia): > 100 µM
- TGI (EKVX NSCLC): > 100 µM
- TGI (HL-60(TB) leukemia): > 100 µM
- TGI (IGROV1 ovarian): > 100 µM
- TGI (MALME-3M melanoma): > 100 µM
- TGI (MDA-MB-231 breast): > 100 µM
- TGI (OVCAR-3 ovarian): > 100 µM
- TGI (RXF 393 renal): > 100 µM
- TGI (SK-OV-3 ovarian): > 100 µM

Compound: CC1(C)/C(=N\Nc2ccc([N+](=O)[O-])cc2[N+](=O)[O-])C2CCC1C2 (stereo not given)
- TGI (786-0 renal): > 100 µM
- TGI (A549 NSCLC): > 100 µM
- TGI (EKVX NSCLC): > 100 µM
- TGI (HL-60(TB) leukemia): > 100 µM
- TGI (IGROV1 ovarian): > 100 µM
- TGI (MALME-3M melanoma): > 100 µM
- TGI (MDA-N): > 100 µM
- TGI (NCI-H522 lung): > 100 µM
- TGI (OVCAR-3 ovarian): > 100 µM
- TGI (SK-OV-3 ovarian): > 100 µM

Compound: Cn1c(O)c(C=Nc2ccc(Cl)cc2Cl)c(=O)n(C)c1=O
- TGI (786-0 renal): > 100 µM
- TGI (A549 NSCLC): > 100 µM
- TGI (CCRF-CEM leukemia): > 100 µM
- TGI (EKVX NSCLC): > 100 µM
- TGI (IGROV1 ovarian): > 100 µM
- TGI (MALME-3M melanoma): > 100 µM
- TGI (MDA-MB-231 breast): > 100 µM
- TGI (NCI-H522 lung): > 100 µM
- TGI (OVCAR-3 ovarian): > 100 µM
- TGI (RXF 393 renal): > 100 µM
- TGI (SK-OV-3 ovarian): > 100 µM

Compound: CS(=O)(=O)CCC(N)P(=O)(O)O (stereo not given)
- TGI (786-0 renal): > 100 µM
- TGI (A549 NSCLC): > 100 µM
- TGI (CCRF-CEM leukemia): > 100 µM
- TGI (EKVX NSCLC): > 100 µM
- TGI (HL-60(TB) leukemia): > 100 µM
- TGI (IGROV1 ovarian): > 100 µM
- TGI (MALME-3M melanoma): > 100 µM
- TGI (MDA-N): > 100 µM
- TGI (NCI-H522 lung): > 100 µM
- TGI (OVCAR-3 ovarian): > 100 µM
- TGI (SK-OV-3 ovarian): > 100 µM

Compound: COc1cc2c3c(c1OC)C(=O)C(=O)C1=C3N(CCC1)CC2
- TGI (786-0 renal): > 100 µM
- TGI (A549 NSCLC): > 100 µM
- TGI (CCRF-CEM leukemia): 80.4 µM
- TGI (EKVX NSCLC): 64.8 µM
- TGI (HL-60(TB) leukemia): 70.4 µM
- TGI (IGROV1 ovarian): > 100 µM
- TGI (MDA-MB-231 breast): > 100 µM
- TGI (NCI-H522 lung): 72.2 µM
- TGI (OVCAR-3 ovarian): 73.3 µM
- TGI (RXF 393 renal): > 100 µM

Compound: CC(C)C[C@H](NC(=O)CCc1cccc2ccccc12)B(O)O
- TGI (786-0 renal): 28.3 µM
- TGI (A549 NSCLC): 49.7 µM
- TGI (EKVX NSCLC): 64.2 µM
- TGI (IGROV1 ovarian): 23.8 µM
- TGI (MALME-3M melanoma): 5.23 µM
- TGI (MDA-MB-231 breast): 15.2 µM
- TGI (NCI-H522 lung): 4.95 µM
- TGI (OVCAR-3 ovarian): 1.86 µM
- TGI (RXF 393 renal): 2.03 µM
- TGI (SK-OV-3 ovarian): > 86.4 µM

Compound: O=C(N[C@@H](Cc1ccccc1)B(O)O)[C@H](Cc1cccc2ccccc12)NC(=O)N1CCOCC1
- TGI (786-0 renal): 0.271 µM and 0.12 µM
- GI50 (A549 NSCLC): 0.0123 µM
- TGI (A549 NSCLC): 0.47 µM
- TGI (CCRF-CEM leukemia): 0.0022 µM
- GI50 (EKVX NSCLC): 0.129 µM
- TGI (EKVX NSCLC): 0.923 µM and 3.66 µM
- TGI (IGROV1 ovarian): 0.07 µM and 0.0754 µM
- TGI (MALME-3M melanoma): 0.0103 µM and 0.0226 µM
- TGI (MDA-MB-231 breast): 0.00745 µM and 0.0232 µM
- TGI (OVCAR-3 ovarian): 0.00255 µM and 0.0196 µM
- TGI (RXF 393 renal): 0.00379 µM

Compound: O=C(Nc1nccs1)NS(=O)(=O)n1cnc2ccccc21
- TGI (786-0 renal): > 100 µM
- TGI (A549 NSCLC): > 100 µM
- TGI (CCRF-CEM leukemia): > 100 µM
- TGI (EKVX NSCLC): > 100 µM
- TGI (HL-60(TB) leukemia): > 100 µM
- TGI (IGROV1 ovarian): > 100 µM
- TGI (MALME-3M melanoma): > 100 µM
- TGI (MDA-MB-231 breast): > 100 µM
- TGI (NCI-H522 lung): > 100 µM
- TGI (OVCAR-3 ovarian): > 100 µM
- TGI (RXF 393 renal): > 100 µM
- TGI (SK-OV-3 ovarian): > 100 µM

Compound: CC1=CC(=O)/C(=C/N2C(=O)CNC2=S)C(=O)O1
- TGI (786-0 renal): > 100 µM
- TGI (A549 NSCLC): > 100 µM
- TGI (EKVX NSCLC): > 100 µM
- TGI (HL-60(TB) leukemia): > 100 µM
- TGI (IGROV1 ovarian): > 100 µM
- TGI (MDA-MB-231 breast): > 100 µM
- TGI (MDA-N): > 100 µM
- TGI (OVCAR-3 ovarian): > 100 µM
- TGI (SK-OV-3 ovarian): > 100 µM

Compound: CCOc1ncnc2ccc(Cl)c(I)c12
- TGI (786-0 renal): > 100 µM
- TGI (A549 NSCLC): > 100 µM
- TGI (CCRF-CEM leukemia): > 100 µM
- TGI (EKVX NSCLC): > 100 µM
- TGI (HL-60(TB) leukemia): > 100 µM
- TGI (IGROV1 ovarian): > 100 µM
- TGI (MALME-3M melanoma): > 100 µM
- TGI (OVCAR-3 ovarian): > 100 µM
- TGI (RXF 393 renal): 60.7 µM
- TGI (SK-OV-3 ovarian): > 100 µM
